Laboratory results: patent publication US9051248B2, “Methods, compounds, and compositions for delivering 1,3-propanedisulfonic acid” (BHI Limited Partnership, priority 2009, dated 2015)

What was measured:
[1] = Water stability (conversion of prodrug to 1,3PDS); format: physicochemical; settings: deionized water; for Conversion to 1,3PDS (%) 1 h / Conversion to 1,3PDS (%) 2 h: 37° C.; for Conversion to 1,3PDS (%) 0 h / Conversion to 1,3PDS (%) 24 h: room temperature; for Conversion to 1,3PDS (%) 0 h: 200 μg/mL
Protocol: The objective of this test was to determine the stability of the prodrugs in simulated gastric fluid (SGF) and water at 37° C. up to 2 hours and in water at room temperature up to 24 hours.
Simulated gastric fluid and water samples were incubated in a shaking water bath at 37° C. for up to 2 hours. The compound (prodrug) was added at Time-point 0. At each selected time point (refer to table), sample aliquots were withdrawn and analyzed to determine the concentration of 1,3-propanedisulfonic acid (1,3PDS). The concentrations of 1,3PDS were calculated based on their respective peak area. The % appearance of 1,3PDS was determined by the amounts of compound determined at each time point compared to nominal concentration (100%) of 1,3PDS generated by 100% of the prodrug (equivalent concentration).
A fresh stock solution at approximately 2 mg/mL of the compound was prepared. One stability solution at 200 μg/mL in the SGF was prepared (sample referred to as Tube A). A stability solution at 200 μg/mL in deionized water was prepared (sample referred to as Tube B). Immediately after preparation, each 200 μg/mL solution was diluted in triplicates to 20 μg/mL in deionized water and analyzed using LC-MS/MS method (Time-point 0). Thereafter, the incubation of tubes A and B was continued in the shaking water bath at 37° C. for 1 and 2 hours while one aliquot of tube B was kept at room temperature for 24 hours. At each specific time point of incubation, 3 aliquots (triplicate) of 50 μL were removed, diluted in 450 μL of water and analyzed using LC-MS/MS method. In parallel, 3 reference samples of 1,3PDS at 100, 10 and 1 μg/mL were prepared, diluted in triplicate in water and injected at the beginning and at the end of the batch. These samples were considered as reference samples.
(§1) The concentrations of 1,3PDS were calculated based on response of the reference samples and their respective peak area response. The % appearance of 1,3PDS was determined by the amounts of compound determined at each time point compared to expected nominal concentration (100%) of 1,3PDS generated by 100% of the prodrug (equivalent concentration).

[2] = In vivo study in ferrets (clinical signs after oral gavage); settings: male ferrets, oral administration, standard dose as printed
Protocol: One group of three male non-naïve ferrets (domestic strain, >16 weeks, >1.2 Kg) were starved for approximately 1.5 h prior to administration of a dosing formulation. Food was given 2 hours post dose. […] The dosing volume was adjusted to 5 mL/kg. Clinical signs were recorded throughout the study period. […] Plasma samples were stored frozen at −80° C. pending transfer to analysis. An aliquot of dosing solution (0.5 mL) was taken prior to dosing and stored frozen at −20° C. pending transfer to analysis. Animals used for multiple studies after a wash out of a minimum twelve day period.

[3] = system: Salmonella typhimurium strains (TA1535, TA1537, TA98, TA100) and Escherichia coli strain WP2 uvrA; assay: Bacterial mutation tests (Ames test); format: cell-based; settings: 1.58 to 5000 μg/plate, pre-incubation version; for Bacterial mutation test result in presence of S9: with S9 mix; for Bacterial mutation test result in absence of S9: without S9 mix
Protocol: Bacterial mutation tests were performed at Charles River Laboratories to evaluate the mutagenic potential of various prodrugs. Salmonella typhimurium strains (TA1535, TA1537, TA98, TA100) and Escherichia coli strain WP2 uvrA were treated with prodrugs at concentrations ranging from 1.58 to 5000 μg/plate in the presence and absence of a supplemented liver fraction (S9 mix) using the pre-incubation version of the bacterial mutation test. All concentrations of each compound were evaluated in triplicate. Bacteria were incubated with standard positive control agents, and the response of the various bacterial strains to these agents confirmed the sensitivity of the test system and the activity of the S9 mix.

[4] = Human whole blood stability; format: in vitro ADME; settings: fresh human whole blood, 37° C., about 100 μg/mL, 0 h
Protocol: The objective of this test was to determine the stability of the prodrugs in fresh human whole blood at different time-points (0, 0.5, 1, 4, 24 hours). Blood samples were incubated in a shaking water bath at 37° C. for up to 24 hours. The compound (prodrug) was added at Time-point 0, and sample aliquots were withdrawn and analyzed at each time point to determine the concentration of 1,3PDS. If possible, the loss of compound was determined by the amounts of compound determined at each time point compared to the amount determined at Time-point 0. To eliminate the conversion due to the matrix, a special Time-point 0 was prepared in pre-extracted blood sample.
Approximately 2.5 mL of whole blood was incubated in a gently shaking water bath at 37° C. for 15 minutes. Two (2) mL of the pre-incubated whole blood were aliquoted in an eppendorf tube. A 100 μL aliquot of blood was removed and 100 μL of the compound Stock Solution was added. The solution was mixed by inversion. This sample was referred to as Tube A. The final concentration of the compound in tube A was approximately at 100 μg/mL. Immediately after mixing, 100 μL of Tube A was aliquotted into 3 different eppendorf tubes. These samples were extracted as described in the “Extraction Procedure” Section. These samples were referred to Time-point 0. Thereafter, the incubation of Tube A was continued in the shaking water bath at 37° C. for 0.5, 1, 4 and 24 hours. At each specific time point of incubation, aliquots (triplicate) of 100 μL were removed and extracted as described in the “Extraction Procedure” Section. To avoid potential further degradation of compound and/or possible degradation products, the aliquot extracts were kept on ice until analysis. After extraction, samples were analyzed using LC-MS/MS method.
A volume of 300 μL of cold-ice acetonitrile was added to a 1.5 mL eppendorf tube and kept on ice until utilization. 100 μL of the sample to be extracted was added and the mix was vortexed (acetonitrile and blood). The sample was centrifuged at 16250×g (13200 rpm on IEC centrifuge with eppendorf rotor) for 5 minutes. A volume of 250 μL of the supernatant was transferred to another tube and evaporated to dryness under a nitrogen stream. The residue was reconstituted with the mobile phase. This sample was then analyzed according to 1,3PDS specific methods.
as §1, with “the nominal concentration” for “response”, “calibration standards” for “reference samples”, “ratio. A linear regression using a weight of 1/x^2 is used to derive the concentration of 1,3PDS.” for “response.”, “to” for “to expected”

Conversion to 1,3PDS (%) 1 h [1]	Conversion to 1,3PDS (%) 2 h [1]	Conversion to 1,3PDS (%) 0 h [1]	SMILES	Clinical signs / side effects in ferrets [2]	Bacterial mutation test result in presence of S9 [3]	Bacterial mutation test result in absence of S9 [3]	also measured
1.0%	1.6%	0.4%	CC(C)(C)COS(=O)(=O)CCCS(=O)(=O)[O-].[Na+] [A6(Na)]	–	–	–	Conversion to 1,3PDS (%) 24 h [1]: 1.4%
14.6%	18.8%	7.0%	CC(C)(CNC(=O)[C@H](Cc1ccccc1)NC(=O)OC(C)(C)C)COS(=O)(=O)CCCS(=O)(=O)[O-].[Na+] [A52(K)]	–	–	–	Conversion to 1,3PDS (%) 24 h [1]: 21.3%
0.0%	0.0%	0.0%	CC(OC(=O)NCCC(C)(C)COS(=O)(=O)CCCS(=O)(=O)O)OC(=O)C(C)C (stereo not shown) [Compound A13]	–	–	–	Conversion to 1,3PDS (%) 24 h [1]: 0.0%
0.4%	1.4%	0.2%	CC(C)[C@H](N)C(=O)NCCC(C)(C)COS(=O)(=O)CCCS(=O)(=O)O [Compound A14]	–	–	–	–
–	–	–	CCOC(=O)C(C)(N)COS(=O)(=O)CCCS(=O)(=O)O (stereo not shown) [Compound A61]	no clinical signs	Positive	Positive	–
0.4%	0.4%	0.3%	CC(OC(=O)NCCC(C)(C)COS(=O)(=O)CCCS(=O)(=O)OCC(C)(C)CCNC(=O)OC(C)OC(=O)C(C)C)OC(=O)C(C)C (stereo not shown) [Compound B13]	–	–	–	–
0.0%	0.0%	0.0%	CC(C)[C@H](N)C(=O)NCCC(C)(C)COS(=O)(=O)CCCS(=O)(=O)OCC(C)(C)CCNC(=O)[C@@H](N)C(C)C [Compound B14]	–	–	–	–
0.0%	0.0%	0.0%	CC(C)(CCOC(=O)c1ccccc1)COS(=O)(=O)CCCS(=O)(=O)OCC(C)(C)CCOC(=O)c1ccccc1 [Compound B23]	–	–	–	Conversion to 1,3PDS (%) 24 h [1]: 0.0%
–	–	–	CCOC(=O)C(C)(C)COS(=O)(=O)CCCS(=O)(=O)OCC(C)(C)C(=O)OCC [Compound B29]	no clinical signs	Positive	Negative	–
0.0%	0.0%	0.0%	CC(C)(COS(=O)(=O)CCCS(=O)(=O)OCC(C)(C)C(=O)OCc1ccccc1)C(=O)OCc1ccccc1 [Compound B30]	–	–	–	Conversion to 1,3PDS (%) 24 h [1]: 0.0%; Conversion to 1,3PDS (% by molar ratio) 0 h [4]: BLLQ
–	–	–	CC(C)(COS(=O)(=O)CCCS(=O)(=O)OCC(C)(C)C(=O)O)C(=O)O [Compound B58]	vomiting	Positive	Positive	–
–	–	–	CCOC(=O)C(C)(C)C(C)OS(=O)(=O)CCCS(=O)(=O)OC(C)C(C)(C)C(=O)OCC (stereo not shown) [Compound B68]	–	Negative	Negative	–
–	–	–	CCOC(=O)CCC(C)(C)COS(=O)(=O)CCCS(=O)(=O)OCC(C)(C)CCC(=O)OCC [Compound B75]	2 out of 3 animals showed abdomen scratching but recovered after 1 h	Negative	Negative	–
–	–	–	CC1(COS(=O)(=O)CCCS(=O)(=O)OCC2(C)CCOC2=O)CCOC1=O (stereo not shown) [Compound B76]	no clinical signs	Negative	Negative	–
–	–	–	CC1(C)COC(=O)C1OS(=O)(=O)CCCS(=O)(=O)OC1C(=O)OCC1(C)C (stereo not shown) [Compound B77]	no clinical signs	Negative	Negative	–
–	–	–	CC1(COS(=O)(=O)CCCS(=O)(=O)OCC2(C)CCC(=O)O2)CCC(=O)O1 (stereo not shown) [Compound B78]	–	Negative	Negative	–
–	–	–	CCOC(=O)C(OS(=O)(=O)CCCS(=O)(=O)OC(C(=O)OCC)C(C)(C)C)C(C)(C)C (stereo not shown) [Compound B82]	no clinical signs	–	–	–
–	–	–	CCOC(=O)C(OS(=O)(=O)CCCS(=O)(=O)OC(C(=O)OCC)C(C)C)C(C)C (stereo not shown) [Compound B83]	no clinical signs	Negative	Negative	–
–	–	–	O=S1(=O)CCCS(=O)(=O)OCO1 [Compound C2]	severe toxicity	–	–	–
–	–	–	CC(C)(C)C(=O)OCOS(=O)(=O)CCCS(=O)(=O)OCOC(=O)C(C)(C)C [Compound D1]	green face	–	–	–
–	–	–	CCCC(=O)OCOS(=O)(=O)CCCS(=O)(=O)OCOC(=O)CCC [Compound D3]	abdominal contracting and/or vomiting	–	–	–
–	–	–	O=C(OCOS(=O)(=O)CCCS(=O)(=O)OCOC(=O)C1CCCCC1)C1CCCCC1 [Compound D5]	abdominal contracting and/or vomiting	–	–	–
–	–	–	CCC(=O)OCOS(=O)(=O)CCCS(=O)(=O)OCOC(=O)CC [Compound D7]	abdominal contracting and/or vomiting	–	–	–

SMILES	Conversion to 1,3PDS (%) 1 h [1]	Conversion to 1,3PDS (%) 2 h [1]	Conversion to 1,3PDS (%) 0 h [1]	Clinical signs / side effects in ferrets [2]	Bacterial mutation test result in presence of S9 [3]	Bacterial mutation test result in absence of S9 [3]	also measured
CC(C)(CNC(=O)[C@@H](N)Cc1ccccc1)COS(=O)(=O)CCCS(=O)(=O)O [Compound A51]	14%	18%	13%	no clinical signs	Negative	Negative	–
